Reference: US6867284B1, “Peptide inhibitors of hepatitis C virus NS3 protease” (Istituto di Ricerche di Biologia Molecolare P. Angeletti …, priority 1998, dated 2005)
pIC50: −log10 of the molar value.

The compounds below were run against T1, HCV NS3 protease (Hepatitis C virus genotype 1b, UniProt P26663) (assay: Inhibition of NS3 protease (HPLC cleavage assay, NS3/4A complex with Pep4AK, substrate peptide 4AB)). Details: Table 1 hexapeptides, cells printed in nM; read-out: IC50.
T1 construct: an NS3/4A complex comprising the NS3 protease domain
T1 sequence (P26663 1027-1208, other chains not shown): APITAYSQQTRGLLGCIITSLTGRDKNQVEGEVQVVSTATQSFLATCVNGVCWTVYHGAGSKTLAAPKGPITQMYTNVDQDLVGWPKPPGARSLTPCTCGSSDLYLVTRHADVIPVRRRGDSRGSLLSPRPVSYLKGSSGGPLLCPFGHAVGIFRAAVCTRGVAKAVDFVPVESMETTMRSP
Type: biochemical
Experimental: Buffer solutions containing 80 μM Pep4AK were preincubated for 10 minutes with 10-200 nM protease and reactions were started by addition of substrate. Six duplicate data points at different substrate concentrations were used to calculate kinetic parameters. Incubation times were chosen in order to obtain <7% substrate conversion and reactions were stopped by addition of 40 μl 1% TFA. Cleavage of peptide substrates was determined by HPLC using a Merck-Hitachi chromatograph equipped with an autosampler. 80 μl samples were injected on a Lichrospher C18 reversed phase cartridge column (4×74 mm, 5 μm, Merck) and fragments were separated using a 10-40% acetonitrile gradient a 5%/min using a flow rate of 2.5 ml/min. Peak detection was accomplished by monitoring both the absorbance at 220 nm and tyrosine fluorescence (λex=260 nm, λem=305 nm). Cleavage products were quantitated by integration of chromatograms with respect to appropriate standards. Kinetic parameters were calculated from nonlinear least-squares fit of initial rates as a function of substrate concentration with the help of a Kaleidagraph software, assuming Michaelis-Menten kinetics.
Ki values of peptide inhibitors were calculated from substrate titration experiments performed in the presence of increasing amounts of inhibitor. Experimental data sets were simultaneously fitted to eq.1 using a multicurve fit macro with the help of a Sigmaplot software: V=(VmaxS)/(Km(1+[…])+S); (eq.1)
Alternatively, Ki values were derived from IC50 values, calculated using a four-parameter logistic function, according to eq.2: IC50−(1+S/Km)Ki (eq.2)

SMILES | IC50
CC(=O)N[C@@H](CC(=O)O)C(=O)N[C@@H](CCC(=O)O)C(=O)N[C@H](C(=O)N[C@@H](CCC(=O)O)C(=O)N[C@@H](CC1CCCCC1)C(=O)NC(CC(F)F)C(=O)O)C(c1ccccc1)c1ccccc1 (single isomer, unassigned) [Compound 1b (L)] | 20 nM
CC(=O)N[C@@H](CC(=O)O)C(=O)N[C@@H](CCC(=O)O)C(=O)N[C@H](C(=O)N[C@@H](CCC(=O)O)C(=O)N[C@@H](CC1CCCCC1)C(=O)NC(C=O)CC(F)F)C(c1ccccc1)c1ccccc1 (single isomer, unassigned) [Compound 1c (D)] | 43 nM
CC(=O)N[C@@H](CC(=O)O)C(=O)N[C@@H](CCC(=O)O)C(=O)N[C@H](C(=O)N[C@@H](CCC(=O)O)C(=O)N[C@@H](CC1CCCCC1)C(=O)NC(C=O)CC(F)F)C(c1ccccc1)c1ccccc1 (single isomer, unassigned) [Compound 1c (L)] | 0.5 nM

Same assay, conditions: Table 1 hexapeptides, cells printed in μM; read-out: IC50

SMILES | IC50
CC(=O)N[C@@H](CC(=O)O)C(=O)N[C@@H](CCC(=O)O)C(=O)N[C@H](C(=O)N[C@@H](CCC(=O)O)C(=O)N[C@@H](CC1CCCCC1)C(=O)NC(CC(F)F)C(=O)O)C(c1ccccc1)c1ccccc1 (single isomer, unassigned) [Compound 1b (D)] | 1000 nM

Same assay, conditions: Table 3 capped dipeptide keto acids; read-out: IC50

SMILES | pIC50
CC(C)C[C@H](NC(=O)OCc1ccccc1)C(=O)NC(CC(F)F)C(=O)C(=O)O (single isomer, unassigned) [Compound 7a] | 4.13
CCCCC(=O)N[C@@H](CC(C)C)C(=O)NC(CC(F)F)C(=O)C(=O)O (single isomer, unassigned) [Compound 7b] | 4.25
CC(C)C[C@H](NC(=O)CN(CC(=O)O)C(=O)OCc1ccccc1)C(=O)NC(CC(F)F)C(=O)C(=O)O (single isomer, unassigned) [Compound 7i] | 4.70
CC(C)C[C@H](NC(=O)CC1(CC(=O)O)CCCC1)C(=O)NC(CC(F)F)C(=O)C(=O)O (single isomer, unassigned) [Compound 7l] | 6.00
CC(C)C[C@H](NC(=O)CC1(CC(=O)O)OCCO1)C(=O)NC(CC(F)F)C(=O)C(=O)O (single isomer, unassigned) [Compound 7p] | 4.82
CC(C)C[C@H](NC(=O)C1CCCCC1C(=O)O)C(=O)NC(CC(F)F)C(=O)C(=O)O (single isomer, unassigned) [Compound 8a] | 4.49
CC(C)C[C@H](NC(=O)Cc1ccccc1CC(=O)O)C(=O)NC(CC(F)F)C(=O)C(=O)O (single isomer, unassigned) [Compound 8b] | 5.10
CC(C)C[C@H](NC(=O)Cc1ccccc1C(=O)O)C(=O)NC(CC(F)F)C(=O)C(=O)O (single isomer, unassigned) [Compound 8e] | 4.89
CC(C)C[C@H](NC(=O)Cc1cccs1)C(=O)NC(CC(F)F)C(=O)C(=O)O (single isomer, unassigned) [Compound 8f] | 4.38
CC(C)C[C@H](NC(=O)c1ccccc1-c1ccccc1C(=O)O)C(=O)NC(CC(F)F)C(=O)C(=O)O (single isomer, unassigned) [Compound 8g] | 5.40
CC(C)C[C@H](NC(=O)C(Oc1cccc(C(=O)O)c1)c1ccccc1)C(=O)NC(CC(F)F)C(=O)C(=O)O (single isomer, unassigned) [Compound 8h] | 5.22
CC(C)C[C@H](NC(=O)[C@H](O)c1cccs1)C(=O)NC(CC(F)F)C(=O)C(=O)O (single isomer, unassigned) [Compound 8s] | 4.74

Same assay, conditions: Table 4 indoline keto acids and related; read-out: IC50

SMILES | pIC50
CC(C)C[C@H](NC(=O)C1Cc2ccc(OC3CCOC3)cc2N1)C(=O)NC(CC(F)F)C(=O)C(=O)O (mixture of isomers) [Compound 10g] | 4.64
CC(C)C[C@H](NC(=O)C1Cc2ccc(OCC3CCOC3)cc2N1)C(=O)NC(CC(F)F)C(=O)C(=O)O (mixture of isomers) [Compound 10h] | 4.80
CC(C)C[C@H](NC(=O)C1(CC(C)C)CCC(=O)N1)C(=O)NC(CC(F)F)C(=O)C(=O)O (mixture of isomers) [Compound 11] | 4.37
CC(C)C[C@H](NC(=O)C1Cc2ccccc2N1)C(=O)NC(CC(F)F)C(=O)C(=O)O (single isomer, unassigned) [Compound 9a] | 4.30
